Measurements reported in patent US11324738B2, “Muscarinic agonists” (Heptares Therapeutics Limited, priority 2015, dated 2022).

Experiments:
Assay type in all cases: cell-based
[1] = target: T1, human muscarinic M1 receptor (Homo sapiens, UniProt P11229); assay: Alphascreen Surefire phospho-ERK1/2 functional assay, CHO cells expressing M1; settings: for Emax: CHO, read-out: % Emax cf. ACh, M1; for EC50: agonist, CHO cells, phospho-ERK1/2, read-out: pEC50 M1 (converted)
T1 construct: expressed in transfected cells
T1 sequence (P11229 1-460): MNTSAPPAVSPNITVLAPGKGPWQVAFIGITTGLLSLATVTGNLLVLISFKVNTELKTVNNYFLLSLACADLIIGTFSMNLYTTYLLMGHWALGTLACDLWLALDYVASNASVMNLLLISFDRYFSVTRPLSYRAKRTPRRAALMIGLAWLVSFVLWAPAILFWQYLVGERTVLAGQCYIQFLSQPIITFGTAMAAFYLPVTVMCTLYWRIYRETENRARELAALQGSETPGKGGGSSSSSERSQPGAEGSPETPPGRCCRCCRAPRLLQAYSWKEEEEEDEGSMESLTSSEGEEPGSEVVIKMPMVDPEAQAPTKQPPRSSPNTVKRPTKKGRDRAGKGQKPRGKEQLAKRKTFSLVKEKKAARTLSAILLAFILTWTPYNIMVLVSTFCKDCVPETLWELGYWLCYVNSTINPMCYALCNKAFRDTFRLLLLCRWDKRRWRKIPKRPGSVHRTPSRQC
Method: (§1) ERK1/2 phosphorylation is a downstream consequence of both Gq/11 and Gi/o protein coupled receptor activation, making it highly suitable for the assessment of M1, M3 (Gq/11 coupled) and M2, M4 receptors (Gi/o coupled), rather than using different assay formats for different receptor subtypes. CHO cells stably expressing the human muscarinic M1, M2, M3 or M4 receptor were plated (25K/well) onto 96-well tissue culture plates in MEM-alpha+10% dialysed FBS. Once adhered, cells were serum-starved overnight. Agonist stimulation was performed by the addition of 5 μL agonist to the cells for 5 min (37° C.). Media was removed and 50 μL of lysis buffer added. After 15 min, a 4 μL sample was transferred to 384-well plate and 7 μL of detection mixture added.

[2] = target: T2, human muscarinic M4 receptor (Homo sapiens, UniProt P08173); assay: Alphascreen Surefire phospho-ERK1/2 functional assay, CHO cells expressing M4; settings: for Emax: CHO, read-out: % Emax cf. ACh, M4; for EC50: agonist, CHO cells, phospho-ERK1/2, read-out: pEC50 M4 (converted)
T2 construct: expressed in transfected cells
T2 sequence (P08173 1-479): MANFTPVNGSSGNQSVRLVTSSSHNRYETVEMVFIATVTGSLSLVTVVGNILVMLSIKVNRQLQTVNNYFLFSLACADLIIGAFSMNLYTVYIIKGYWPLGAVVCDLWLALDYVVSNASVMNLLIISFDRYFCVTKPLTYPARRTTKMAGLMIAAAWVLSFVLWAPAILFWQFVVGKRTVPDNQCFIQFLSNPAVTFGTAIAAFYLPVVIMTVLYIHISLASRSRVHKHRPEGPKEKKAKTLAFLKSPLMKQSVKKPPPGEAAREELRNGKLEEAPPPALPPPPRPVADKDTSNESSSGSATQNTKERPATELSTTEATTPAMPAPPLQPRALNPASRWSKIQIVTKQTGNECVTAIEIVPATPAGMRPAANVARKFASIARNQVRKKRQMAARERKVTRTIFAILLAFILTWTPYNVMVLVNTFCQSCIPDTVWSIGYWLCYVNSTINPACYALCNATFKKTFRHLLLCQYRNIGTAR
Method: as §1

[3] = target: T3, human muscarinic M2 receptor (Homo sapiens, UniProt P08172); assay: Alphascreen Surefire phospho-ERK1/2 functional assay, CHO cells expressing M2; settings: for Emax: CHO, read-out: % Emax cf. ACh, M2; for EC50: agonist, CHO cells, phospho-ERK1/2, read-out: pEC50 M2 (converted)
T3 construct: expressed in transfected cells
T3 sequence (P08172 1-466): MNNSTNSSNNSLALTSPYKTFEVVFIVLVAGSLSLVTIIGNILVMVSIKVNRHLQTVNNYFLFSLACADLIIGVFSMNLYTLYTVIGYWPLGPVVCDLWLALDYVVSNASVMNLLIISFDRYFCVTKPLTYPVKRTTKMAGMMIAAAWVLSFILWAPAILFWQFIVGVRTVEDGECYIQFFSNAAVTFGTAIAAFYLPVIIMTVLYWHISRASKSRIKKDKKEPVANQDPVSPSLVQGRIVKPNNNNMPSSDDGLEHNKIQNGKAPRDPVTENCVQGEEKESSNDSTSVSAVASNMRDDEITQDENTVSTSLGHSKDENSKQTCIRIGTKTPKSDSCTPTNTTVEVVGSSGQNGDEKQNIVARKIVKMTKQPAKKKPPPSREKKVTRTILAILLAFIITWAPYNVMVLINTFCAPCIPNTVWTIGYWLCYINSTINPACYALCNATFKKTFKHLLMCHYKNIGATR
Method: as §1

[4] = target: T4, human muscarinic M3 receptor (Homo sapiens, UniProt P20309); assay: Alphascreen Surefire phospho-ERK1/2 functional assay, CHO cells expressing M3; settings: for Emax: CHO, read-out: % Emax cf. ACh, M3; for EC50: agonist, CHO cells, phospho-ERK1/2, read-out: pEC50 M3 (converted)
T4 construct: expressed in transfected cells
T4 sequence (P20309 whole entry): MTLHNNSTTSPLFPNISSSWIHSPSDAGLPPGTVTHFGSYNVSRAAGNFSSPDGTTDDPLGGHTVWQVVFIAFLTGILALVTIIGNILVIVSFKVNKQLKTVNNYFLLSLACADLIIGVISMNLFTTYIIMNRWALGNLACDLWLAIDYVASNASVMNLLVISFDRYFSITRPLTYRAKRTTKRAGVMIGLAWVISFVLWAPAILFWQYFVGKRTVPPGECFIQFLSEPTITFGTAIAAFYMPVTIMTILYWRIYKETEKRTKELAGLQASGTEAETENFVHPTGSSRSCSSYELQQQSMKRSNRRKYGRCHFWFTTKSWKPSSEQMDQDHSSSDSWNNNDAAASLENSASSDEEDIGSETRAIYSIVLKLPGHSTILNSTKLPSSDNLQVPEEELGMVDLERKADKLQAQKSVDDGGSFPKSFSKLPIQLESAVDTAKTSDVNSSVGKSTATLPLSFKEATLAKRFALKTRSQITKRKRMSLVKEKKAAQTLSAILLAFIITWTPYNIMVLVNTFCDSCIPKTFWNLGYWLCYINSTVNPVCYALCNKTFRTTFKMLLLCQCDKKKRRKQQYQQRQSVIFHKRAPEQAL
Method: as §1

Row | Emax [1] [%] | EC50 [1] [nM] | Emax [2] [%] | EC50 [2] [nM] | Emax [3] [%] | EC50 [3] [nM] | Emax [4] [%] | EC50 [4] [nM] | Compound | selectivity for the M4 receptor relative to the M1 receptor ([2]; statement in words)
1 | 71 | 15.8 | 59 | 7.94 | 8 | > 20000 | 13 | > 20000 | CCOC(=O)N1CC2(CCC(N3CCC(N4C(=O)CC[C@@H]4CC)CC3)C2)C1 (mixture of isomers) [Example 2-6 (mixture of isomers), Ethyl 6-{4-[(2S)-2-ethyl-5-oxopyrrolidin-1-yl]piperidin-1-yl}-2-azaspiro[3.4]octane-2-carboxylate] | –
2 | 63 | 251 | 88 | 31.6 | 7 | > 20000 | 11 | > 20000 | CCOC(=O)N1CC2(CC(N3CCC(N4CC(F)(F)C[C@@H]4CO)CC3)C2)C1 [Example 1-12, Ethyl 6-{4-[(2R)-4,4-difluoro-2-(hydroxymethyl)pyrrolidin-1-yl]piperidin-1-yl}-2-azaspiro[3.3]heptane-2-carboxylate] | –
3 | 24 | > 20000 | 100 | 79.4 | 6 | > 20000 | 4 | > 20000 | COC(=O)N1CC2(CCC(N3CCC(N4CCC[C@@H]4c4cnco4)CC3)C2)C1 (single isomer, unassigned) [Example 2-11 (Isomer 2)] | highly selective for the M4 receptor relative to the M1 receptor
